# US5914327A, “Biaryl-pyridoquinazolinone derivatives as anti-cancer agents” (American Cyanamid Company, priority 1997, dated 1999)
# Counter-ions that a name gives are not always drawn.
# How the values were obtained:
# COLON 26 = assay: Murine Colon 26 Advanced, Metastatic Tumor; assay type: in vivo, murine (CD2F1 mice)
# Description: (§1) Murine Tumor Standard Pharmacological Test Procedures
# Murine Colon 26 Advanced, Metastatic Tumor
# CD2F1 mice are injected i.p. with 5×10^5 tumor cells on Day 0 of the test. […]
# A2780 DDP = assay: In vitro cytotoxicity, two cell line test procedure (A2780 DDP); assay type: cell-based; conditions: Homo sapiens, 48 hours exposure, sulforhodamine B, cisplatin-resistant
# Description: (§2) Description of the two cell line test procedure
# (§3) A2780 S and A2780 DDP cells [Biochemical and Molecular Properties of Cisplatin-resistant A2780 Cells Grown in Folinic Acid; Y. Lu, J. Hnan, and K. Scanlon, J. Biol. Chem., 263, 4891-4894, 1988.] are grown in RPMI 1640 medium containing 5% fetal calf serum, 50 μg/ml streptomycin, 50 units/ml penicillin, 50 μg/ml gentamycin, 0.03% L-glutamine, 1 nM estradiol, 1 nM testosterone, 5 μg/mlinsulin, 5 μg/ml transferrin, and 5 ng/ml selenous acid, at 37° C., in a humidified atmosphere, containing 5% CO2. Experiments are done in the same media.
# (§4) Cells are plated at the concentration of 5×10^4 /ml on Day 0 of the experiment. On Day one control cells are fixed with trichloroacetic acid and 5 ten fold dilutions of tested compounds are added, in duplicates, to the remaining cells. On Day 3 (48 hours exposure to drugs) all cells are fixed with trichloroacetic acid, stained with 0.4% sulforhodamine B, and absorbency is read at 520 nm. The IC50s (concentration causing 50% inhibition) are determined for each drug.
# A2780 S = assay: In vitro cytotoxicity, two cell line test procedure (A2780 S); assay type: cell-based; conditions: Homo sapiens, A2780S; 48 hours exposure, sulforhodamine B
# Description: as §2, §3, §4
# LS174T = assay: Human Tumor Xenograft Standard Pharmacological Test Procedure; assay type: in vivo, human tumor in athymic nude mice; conditions: days 1,5,9
# Source text: Human Tumor Xenograft Standard Pharmacological Test Procedure
# P388 [1] = assay: Murine P388 Leukemia; assay type: in vivo, murine (CD2F1 mice); conditions: days 1,5,9
# Description: as §1
# CD2F1 mice are injected i.p. with 1×10^6 tumor cells on Day 0 of the test. Drugs are administered i.p. on Days 1, 5, and 9 after the tumor implantation.
# P388 [2] = assay: Murine P388 Leukemia; assay type: in vivo, murine (CD2F1 mice); conditions: 200 mg/kg i.p., days 1,5
# P388 [3] = conditions: Denny et al., Mutation Research 232: 233 (1990); cited from earlier work
# [4] = Denny et al., Mutation Research 232: 233 (1990); cited from earlier work
Structure (SMILES),IC50 (A2780 DDP) [µg/mL],IC50 (A2780 S) [µg/mL],other results
"COc1cccc2c1C(=O)c1c(O)c3c(c(O)c1C2=O)C[C@@](O)(C(=O)CO)C[C@@H]3O[C@H]1C[C@H](N)[C@H](O)[C@H](C)O1 [Adriamycin, reference compound]",,,"% ILS (COLON 26; 4 mg/kg i.p., days 5,9,14): +71 % ILS"
"CN(C)CCNC(=O)c1cccn2c(=O)c3cc(-c4cccc(N)c4)ccc3nc12 [Example 13, 11H-Pyrido[2,1-b]quinazoline-6-carboxamide, 2-(3-aminophenyl)-N-[2-(dimethylamino)ethyl]-11-oxo]",3.7,0.4,"% ILS (COLON 26; 100 mg/kg i.p., days 5,9,13): +18 % ILS; % ILS (COLON 26; 200 mg/kg i.p., days 5,9,13): +24 % ILS; % ILS (COLON 26; 250 mg/kg i.p., days 5,9,13): +35 % ILS; % T/C (relative tumor growth treated/placebo) (LS174T; 250 mg/kg i.p.): 59 % T/C; % T/C (relative tumor growth treated/placebo) (LS174T; 300 mg/kg i.p.): 44 % T/C; % ILS (P388 [1]; 25 mg/kg i.p.): +4 % ILS; % ILS (P388 [1]; 50 mg/kg i.p.): +2 % ILS; % ILS (P388 [1]; 100 mg/kg i.p.): +20 % ILS; % ILS (P388 [1]; 200 mg/kg i.p.): +57 % ILS"
"CN(C)CCNC(=O)c1cccn2c(=O)c3cc(-c4ccccc4-c4ccccc4)ccc3nc12 [Example 14, 11H-Pyrido[2,1-b]quinazoline-6-carboxamide, 2-[1,1'biphenyl]-2-yl-N-[2-(dimethylamino)ethyl]-11-oxo]",4.8,4.4,
"CN(C)CCNC(=O)c1cccn2c(=O)c3cc(-c4cccc(-c5ccccc5)c4)ccc3nc12 [Example 15, 11H-Pyrido[2,1-b]quinazoline-6-carboxamide, 2-[1,1'-biphenyl]-3-yl-N-[2-(dimethylamino)ethyl]-11-oxo]",0.8,0.6,% ILS (P388 [2]): -40 % ILS; % ILS (P388 [1]; 50 mg/kg i.p.): +8 % ILS; % ILS (P388 [1]; 100 mg/kg i.p.): +2 % ILS
CN(C)CCNC(=O)c1cccn2c(=O)c3cc(-c4cc5ccccc5c5ccccc45)ccc3nc12 [Example 16],5.3,4.1,
"CN(C)CCNC(=O)c1cccn2c(=O)c3cc(-c4cccc5ccccc45)ccc3nc12 [Example 17, 11H-pyrido[2,1-b)quinazoline-6-carboxamide, N-[2-(dimethylamino)ethyl]-2-(1-naphthalenyl)-11-oxo]",4.7,4.6,
CN(C)CCNC(=O)c1cccn2c(=O)c3cc(-c4cccc(C(F)(F)F)c4)ccc3nc12 [Example 18],4.2,1.1,
"COc1ccc(-c2ccc3nc4c(C(=O)NCCN(C)C)cccn4c(=O)c3c2)cc1 [Example 19, 11H-Pyrido[2,1-b]quinazoline-6-carboxamide, N-[2-(dimethylamino)ethyl]-2-(4-methoxyphenyl)-11-oxo]",3.4,4.3,% ILS (P388 [1]; 50 mg/kg i.p.): -9 % ILS; % ILS (P388 [1]; 100 mg/kg i.p.): +4 % ILS; % ILS (P388 [1]; 200 mg/kg i.p.): +6 % ILS
"CN(C)CCNC(=O)c1cccn2c(=O)c3cc(-c4cc(C(F)(F)F)cc(C(F)(F)F)c4)ccc3nc12 [Example 20, 11H-Pyrido[2,1-b]quinazoline-6-carboxamide, 2-[3,5-bis(trifluoromethyl)phenyl]-N-[2-(dimethylamino)ethyl]-11-oxo]",3,3.8,
CN(C)CCNC(=O)c1cccn2c(=O)c3cc(-c4cccc(N(C)C)c4)ccc3nc12 [Example 21],0.5,0.2,
"Nc1cccc(-c2ccc3nc4c(C(=O)NCCNCCO)cccn4c(=O)c3c2)c1 [Example 24, 11H-Pyrido [2,1-b]quinazoline-6-carboxamide, 2-(3-aminophenyl)-N-[2-[(2-hydroxyethyl)amino]ethyl]-11-oxo-trihydrochloride]",2.1,0.6,"% ILS (COLON 26; 200 mg/kg i.p., days 5,9,13): +24 % ILS; % ILS (COLON 26; 300 mg/kg i.p., days 5,9,13): -24 % ILS; % ILS (P388 [1]; 25 mg/kg i.p.): +12 % ILS; % ILS (P388 [1]; 50 mg/kg i.p.): +4 % ILS; % ILS (P388 [1]; 100 mg/kg i.p.): +4 % ILS; % ILS (P388 [1]; 200 mg/kg i.p.): 0 % ILS"
"O=C(NCCNCCO)c1cccn2c(=O)c3cc(-c4ccccc4)ccc3nc12 [Example 26, 11H-pyrido[2,1-b]quinazoline-6-carboxamide, N-[2-[(2-hydroxyethyl)amino]-ethyl]-11-oxo-2-phenyl, dihydrochloride]",3.5,0.8,
"Nc1ccccc1-c1ccc2nc3c(C(=O)NCCNCCO)cccn3c(=O)c2c1 [Example 30, 11H-Pyrido[2,1-b]quinazoline-6-carboxamide, 2-(2-aminophenyl)-N-[2-[(2-hydroxyethyl)amino]ethyl]-11-oxo-trihydrochloride]",6.9,4.8,
"CN(C)CCNC(=O)c1cccn2c(=O)c3ccc(-c4cccc(N)c4)cc3nc12 [Example 35, 11H-Pyrido[2,1-b]quinazoline-6-carboxamide, 3-(3-aminophenyl)-N-[2-(dimethylamino)ethyl]-11-oxo]",0.4,0.5,
"CN(C)CCNC(=O)c1cccn2c(=O)c3ccccc3nc12 [I, N-[2-(dimethylamino)ethyl]-11-oxo-11H-pyrido[2,1-b]quinalzoline-6-carboxamide]",,,activity in P388 mouse model (P388 [3]): inactive in a P388 mouse model; in vitro activity [4]: showed some in vitro activity
"CC[C@]1(O)C[C@H]2CN(CCc3c([nH]c4ccccc34)[C@@](C(=O)OC)(c3cc4c(cc3OC)N(C=O)[C@H]3[C@@](O)(C(=O)OC)[C@H](OC(C)=O)[C@]5(CC)C=CCN6CC[C@]43[C@@H]65)C2)C1 [Vincristine, reference compound]",,,% T/C (relative tumor growth treated/placebo) (LS174T; 1.0 mg/kg i.p.): 52 % T/C; % ILS (P388 [1]; 0.8 mg/kg i.p.): +114 % ILS
